Reference: ChEMBL document CHEMBL1139043, “Carbonic anhydrase inhibitors. Inhibition studies of the human secretory isoform VI with anions” (Bioorg Med Chem Lett, 2007)

Molecular target: Carbonic anhydrase 6 (Homo sapiens) (UniProt P23280)
Sequence (P23280 whole entry): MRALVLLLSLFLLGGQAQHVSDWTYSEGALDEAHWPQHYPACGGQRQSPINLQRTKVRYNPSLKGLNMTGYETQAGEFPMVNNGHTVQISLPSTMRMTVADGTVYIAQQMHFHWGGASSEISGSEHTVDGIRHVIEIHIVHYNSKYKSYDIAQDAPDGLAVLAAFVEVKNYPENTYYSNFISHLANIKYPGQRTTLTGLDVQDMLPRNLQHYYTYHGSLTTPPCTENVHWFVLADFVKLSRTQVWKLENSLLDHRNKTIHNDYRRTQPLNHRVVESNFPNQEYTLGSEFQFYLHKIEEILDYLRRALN
Description: Inhibition of full length human recombinant full length CA6 expressed in Escherichia coli BL21 by CO2 hydration method

Row | Compound | Kinact [mM]
1 | NS(=O)(=O)O | 0.09
2 | O=[As](O)(O)c1ccccc1 | 13.9
